Experimental data from PubChem BioAssay (NCI).
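Interpolation was linear, between the two tested concentrations surrounding the appropriate level; five concentrations were tested over 48 hours in 96-well plates. Definition used: TGI = concentration required for complete inhibition of growth.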 Where a SMILES comes first, the peptide text is derived from it. Bridges are numbered along the chain shown (N, C = ends). [ ]: non-standard residue; d: D form. The star is where a group is joined. ξ: configuration not given here. X26 = O=C(/C=C/C=C/C=C/C=C/C=C/C(=O)*)NC1=C(O)CCC1=O; NMeA = CN[C@@H](C)C(=O)O; ξF = NC(Cc1ccccc1)C(=O)O; ξA = CC(N)C(=O)O

Experiments:
Test in all cases: NCI-60 cell line screen, 48 h
[1] = test system: EKVX NSCLC
[2] = test system: A549 NSCLC
[3] = test system: RXF 393 renal
[4] = test system: K-562 leukemia
[5] = test system: MDA-MB-231 breast
[6] = test system: SK-MEL-28 melanoma
[7] = test system: BT-549 breast
[8] = test system: COLO 205 colon
[9] = test system: SN12C renal
[10] = test system: NCI-H23 lung
[11] = test system: CAKI-1 renal
[12] = test system: T-47D breast
[13] = test system: HCT-116 colon
[14] = test system: SR leukemia
[15] = test system: SNB-75 CNS
[16] = test system: RPMI-8226 leukemia
[17] = test system: MALME-3M melanoma
[18] = test system: SW-620 colon
[19] = test system: SF-539 CNS
[20] = test system: MDA-MB-435
[21] = test system: HS 578T breast
[22] = test system: KM12 colon
[23] = test system: DU-145 prostate
[24] = test system: U251 CNS
[25] = test system: SK-MEL-2 melanoma
[26] = test system: LOX IMVI melanoma
[27] = test system: SF-295 CNS
[28] = test system: NCI-H522 lung
[29] = test system: HL-60(TB) leukemia
[30] = test system: OVCAR-5 ovarian
[31] = test system: ACHN renal
[32] = test system: HT29 colon
[33] = test system: TK-10 renal
[34] = test system: OVCAR-3 ovarian
[35] = test system: SNB-19 CNS
[36] = test system: HOP-92 NSCLC
[37] = test system: OVCAR-4 ovarian
[38] = test system: CCRF-CEM leukemia
[39] = test system: SK-OV-3 ovarian
[40] = test system: PC-3 prostate
[41] = test system: IGROV1 ovarian
[42] = test system: UACC-257 melanoma
[43] = test system: MCF7 breast
[44] = test system: HCC-2998 colon
[45] = test system: NCI/ADR-RES ovarian
[46] = test system: NCI-H460 lung
[47] = test system: SF-268 CNS
[48] = test system: M14 melanoma
[49] = test system: UACC-62 melanoma
[50] = test system: UO-31 renal
[51] = test system: HCT-15 colon
[52] = test system: SK-MEL-5 melanoma
[53] = test system: HOP-62 NSCLC
[54] = test system: 786-0 renal
[55] = test system: MDA-N
[56] = test system: A498 renal
[57] = test system: MOLT-4 leukemia
[58] = test system: OVCAR-8 ovarian
[59] = test system: NCI-H226 lung

In the case of CC1NC(=O)[C@H](C)N(C)C(=O)[C@@H]2CCCN2C(=O)[C@@H](NC(=O)C(Cc2ccccc2)NC(=O)/C=C/C=C/C=C/C=C/C=C/C(=O)NC2=C(O)CCC2=O)COC(=O)[C@@H]2CCCN2C1=O (some centres not stated) (X26-[ξF]SP[NMeA][ξA]P; ester 2-C), the TGI [1] is reported as greater than 100 µM, the TGI [2] is reported as greater than 100 µM and the TGI [3] is reported as greater than 100 µM. The TGI [4] was greater than 100 µM, the TGI [5] was greater than 100 µM and the TGI [6] was greater than 100 µM. The TGI [7] was greater than 100 µM, the TGI [8] was greater than 100 µM and the TGI [9] was greater than 100 µM. It also gave a TGI [10] greater than 100 µM, a TGI [11] greater than 100 µM and a TGI [12] greater than 100 µM. It also gave a TGI [13] greater than 100 µM, a TGI [14] greater than 100 µM and a TGI [15] greater than 100 µM. It also gave a TGI [16] greater than 100 µM, a TGI [17] greater than 100 µM and a TGI [18] greater than 100 µM. The TGI [19] was greater than 100 µM, the TGI [20] was greater than 100 µM and the TGI [21] was greater than 100 µM. The TGI [22] was greater than 100 µM, the TGI [23] was greater than 100 µM and the TGI [24] was greater than 100 µM. It also gave a TGI [25] greater than 100 µM, a TGI [26] greater than 100 µM and a TGI [27] greater than 100 µM. For the same compound, the TGI [28] was greater than 100 µM, the TGI [29] was greater than 100 µM and the TGI [30] was greater than 100 µM. The TGI [31] was greater than 100 µM, the TGI [32] was greater than 100 µM and the TGI [33] was 92.1 µM. For the same compound, the TGI [34] was greater than 100 µM, the TGI [35] was greater than 100 µM and the TGI [36] was greater than 100 µM. For the same compound, the TGI [37] was greater than 100 µM, the TGI [38] was greater than 100 µM and the TGI [39] was greater than 100 µM. For the same compound, the TGI [40] was greater than 100 µM, the TGI [41] was greater than 100 µM and the TGI [42] was greater than 100 µM. For the same compound, the TGI [43] was greater than 100 µM, the TGI [44] was greater than 100 µM and the TGI [45] was greater than 100 µM. It also gave a TGI [46] greater than 100 µM, a TGI [47] greater than 100 µM and a TGI [48] greater than 100 µM. The TGI [49] was greater than 100 µM, the TGI [50] was greater than 100 µM and the TGI [51] was greater than 100 µM. It also gave a TGI [52] greater than 100 µM, a TGI [53] greater than 100 µM and a TGI [54] greater than 100 µM. It also gave a TGI [55] greater than 100 µM.

NCCNCC1CCNCC1 gave a TGI [1] greater than 100 µM, a TGI [2] greater than 100 µM and a TGI [3] greater than 100 µM. The TGI [4] was greater than 100 µM, the TGI [5] was greater than 100 µM and the TGI [6] was greater than 100 µM. The TGI [7] was greater than 100 µM, the TGI [8] was greater than 100 µM and the TGI [9] was greater than 100 µM. The TGI [10] was greater than 100 µM, the TGI [11] was greater than 100 µM and the TGI [12] was greater than 100 µM. The TGI [13] was greater than 100 µM, the TGI [14] was greater than 100 µM and the TGI [15] was greater than 100 µM. The TGI [16] was greater than 100 µM, the TGI [17] was greater than 100 µM and the TGI [18] was greater than 100 µM. For the same compound, the TGI [19] was greater than 100 µM, the TGI [20] was greater than 100 µM and the TGI [56] was greater than 100 µM. The TGI [57] was greater than 100 µM, the TGI [21] was greater than 100 µM and the TGI [22] was greater than 100 µM. The TGI [23] was greater than 100 µM, the TGI [24] was greater than 100 µM and the TGI [25] was greater than 100 µM. For the same compound, the TGI [26] was greater than 100 µM, the TGI [27] was greater than 100 µM and the TGI [28] was greater than 100 µM. It also gave a TGI [30] greater than 100 µM, a TGI [31] greater than 100 µM and a TGI [32] greater than 100 µM. For the same compound, the TGI [33] was greater than 100 µM, the TGI [58] was greater than 100 µM and the TGI [34] was greater than 100 µM. The TGI [35] was greater than 100 µM, the TGI [36] was greater than 100 µM and the TGI [37] was greater than 100 µM. It also gave a TGI [39] greater than 100 µM, a TGI [40] greater than 100 µM and a TGI [59] greater than 100 µM. The TGI [41] was greater than 100 µM, the TGI [42] was greater than 100 µM and the TGI [43] was greater than 100 µM. It also gave a TGI [44] greater than 100 µM, a TGI [45] greater than 100 µM and a TGI [46] greater than 100 µM. The TGI [47] was greater than 100 µM, the TGI [48] was greater than 100 µM and the TGI [49] was greater than 100 µM. The TGI [50] was greater than 100 µM, the TGI [51] was greater than 100 µM and the TGI [52] was greater than 100 µM. For the same compound, the TGI [53] was greater than 100 µM, the TGI [54] was greater than 100 µM and the TGI [55] was greater than 100 µM.

With CCCCNC(=S)N/N=C/c1cccc(C)n1 the TGI [1] was greater than 100 µM, the TGI [2] was greater than 100 µM and the TGI [4] was 44.5 µM. It also gave a TGI [5] greater than 100 µM, a TGI [6] greater than 100 µM and a TGI [7] greater than 100 µM. For the same compound, the TGI [8] was greater than 100 µM, the TGI [9] was greater than 100 µM and the TGI [10] was greater than 100 µM. For the same compound, the TGI [11] was 87.8 µM, the TGI [12] was greater than 100 µM and the TGI [13] was 38.8 µM. For the same compound, the TGI [14] was greater than 100 µM, the TGI [15] was greater than 100 µM and the TGI [16] was greater than 100 µM. The TGI [17] was greater than 100 µM, the TGI [18] was greater than 100 µM and the TGI [19] was 96.8 µM. For the same compound, the TGI [20] was greater than 100 µM, the TGI [56] was greater than 100 µM and the TGI [57] was 55.1 µM. The TGI [21] was greater than 100 µM, the TGI [22] was greater than 100 µM and the TGI [23] was greater than 100 µM. It also gave a TGI [24] greater than 100 µM, a TGI [26] greater than 100 µM and a TGI [27] greater than 100 µM. For the same compound, the TGI [28] was 41.8 µM, the TGI [29] was greater than 100 µM and the TGI [30] was greater than 100 µM. The TGI [31] was 68 µM, the TGI [33] was 97.6 µM and the TGI [58] was greater than 100 µM. For the same compound, the TGI [34] was greater than 100 µM, the TGI [35] was greater than 100 µM and the TGI [36] was 86.7 µM. The TGI [37] was greater than 100 µM, the TGI [38] was 40.2 µM and the TGI [39] was greater than 100 µM. The TGI [40] was greater than 100 µM, the TGI [59] was 62.2 µM and the TGI [41] was greater than 100 µM. It also gave a TGI [42] greater than 100 µM, a TGI [43] greater than 100 µM and a TGI [45] greater than 100 µM. For the same compound, the TGI [46] was greater than 100 µM, the TGI [47] was greater than 100 µM and the TGI [48] was 48.6 µM. For the same compound, the TGI [49] was 68.3 µM, the TGI [50] was 78.5 µM and the TGI [51] was greater than 100 µM. For the same compound, the TGI [52] was greater than 100 µM, the TGI [53] was 55.2 µM and the TGI [54] was greater than 100 µM. For the same compound, the TGI [55] was greater than 100 µM.
